# Results as given in PMC10363607, “Identification of novel and potent dual-targeting HDAC1/SPOP inhibitors using structure-based virtual screening, molecular dynamics simulation and evaluation of in vitro and in vivo antitumor activity” (Frontiers in Pharmacology, 2023).
# Entries after “also recorded” stand apart in the source; their conditions may differ. Where two headings read alike, the source gives them in different places.
# What was measured:
# SPOP = target: T1, SPOP (Homo sapiens, UniProt O43791); assay: SPOP fluorescence polarization (FP) competition assay with FITC-puc_SBC1; format: binding
# T1 construct: purchased Abcam
# Method: The enzymatic activity of SPOP was determined by a previously described fluorescence polarization (FP) assay ([Guo et al., 2016]). FITC-labeled peptide substrate puc_SBC1 (FITC-puc_SBC1, FITC-[…]) was purchased (GL Biochem Ltd, Shanghai). Serial dilutions of competitors for SPOP23-337 were prepared from the 20 mM DMSO stocks. The diluted compound was added to the reaction mixture in 100 μl of HEPES (25 mM, pH 7.5) containing 10 μM SPOP and 50 nM FITC-puc_SBC1. After incubation for 1 h at 4°C, FP was measured on a microplate reader (Perkin Elemer) using the wavelengths of 480 nm for excitation and 535 nm for emission, respectively.
# (§1) All experiments were performed in triplicate. Competition binding data were analyzed using GraphPad Prism 6.0 software (GraphPad Software Inc, San Diego, CA) and the inhibition constants (IC50) were calculated by nonlinear curve fitting.
# HDAC1 = target: T2, HDAC1 (Homo sapiens, UniProt Q13547); assay: In vitro HDAC1 inhibition, fluorescent substrate Boc-Lys(acetyl)-AMC; format: biochemical
# T2 construct: purchased Abcam
# Method: In the 96-well plates, different concentrations of the tested compound (50 μL) were added to 10 μl of HDAC1 enzyme solution. After incubation at 37°C for 5 min, 40 μl of the fluorescent substrate Boc-Lys (acetyl)-AMC was then added to the mixture. The plates were incubated at 37°C for 0.5 h, and the developer (100 μl) containing trypsin and TSA was added to the mixture. Finally, the fluorescence intensity at wavelengths of 390 nm and 460 nm was measured 20 min later by a microplate reader (Perkin Elemer).
# as §1
# [1] = tested on: SPOP and HDAC levels in HCT-116 cells; assay: Western blot of SPOP and HDAC levels in HCT-116 cells; format: cell-based; settings: HCT-116 cells, 0, 0.5 and 2 μM, 72 h
# Method: (§2) The tumor cells (10^6 cells/well) were seeded onto 6-well plates and allowed to culture for 24 h. The cells were incubated with various concentrations (0, 0.5 and 2 μM) of HS-2 at 37°C for 72 h. Tumor cells were washed and lysed with RIPA. Protein samples were detected by western blot as described previously ([Zheng et al., 2021]).
# [2] = tested on: SPOP and HDAC levels in A498 cells; assay: Western blot of SPOP and HDAC levels in A498 cells; format: cell-based; settings: A498 cells, 0, 0.5 and 2 μM, 72 h
# Method: as §2
# HCT-116 tumor cells = assay: In vivo anticancer activity, HCT-116 xenograft; settings: six times; for tumor volume versus control group: HCT-116 xenograft, nude mice
# Method: According to the previously reported in vivo inhibition method, we injected HCT-116 tumor cells (200 μl, 1 × 10^7 cells) into the right subcutaneous space of 6-week-old BALB/c nude mice (Experimental Animal Center of Yangzhou University (Yangzhou, China) ([Zheng et al., 2021]). All experimental protocols were approved by the Animal Ethics Committee of China Pharmaceutical University. When the tumors grew to 90–120 mm^3, the mice were randomly divided into three groups (five mice per group) and intraperitoneally administered with vehicle (PBS buffer pH 7.4, volume capacity: 0.2 ml), compound HS-2 (volume capacity: 0.2 ml in PBS vehicle, 5 mg/kg), and compound HS-2 (volume capacity: 0.2 ml in PBS vehicle, 10 mg/kg) every 3 days for a total of six times. Tumor volume and weight were measured every 3 days. Tumor volume was calculated using the formula (c × c × d)/2 (c, the smallest diameter; d, the largest diameter).
# OS-RC-2 cell = assay: MTT cell growth inhibition, OS-RC-2; format: cell-based; settings: read-out: OS-RC-2 cell proliferation IC50
# Method: (§3) According to the previously reported method ([Namwan et al., 2022]; [Zhao et al., 2023]), at a concentration of 5 × 10^4/ml, cell lines were planted in 96-well plates and cultivated for an entire night. The cells were incubated at 37 °C for 72 h while being exposed to various inhibitor concentrations. And then, MTT stock solution (5 mg/ml) was added to each well and incubated for an additional 4 h. Dimethyl sulfoxide (DMSO) was used to dissolve the insoluble crystals, and a microplate reader was used to detect absorbance at 570 nm. Survival ratio (%) was calculated using the following equation: survival ratio (%) = (A treatment /A control ) × 100%. Data were analyzed using the analysis software GraphPad Prism 6.0 software (GraphPad Software Inc., San Diego, CA), and the half-maximal inhibitory concentration (IC50) values were calculated by the dose-response curve visualized using nonlinear regression (curve fit).
# 769-P cell = assay: MTT cell growth inhibition, 769-P; format: cell-based; settings: 72 h, read-out: 769-P cell proliferation IC50
# Method: as §3
# [3] = FP, 10 μM SPOP, 50 nM FITC-puc_SBC1, triplicate
# [4] = 5 and 10 mg/kg intraperitoneally every 3 days
# T1 sequence (O43791 23-337): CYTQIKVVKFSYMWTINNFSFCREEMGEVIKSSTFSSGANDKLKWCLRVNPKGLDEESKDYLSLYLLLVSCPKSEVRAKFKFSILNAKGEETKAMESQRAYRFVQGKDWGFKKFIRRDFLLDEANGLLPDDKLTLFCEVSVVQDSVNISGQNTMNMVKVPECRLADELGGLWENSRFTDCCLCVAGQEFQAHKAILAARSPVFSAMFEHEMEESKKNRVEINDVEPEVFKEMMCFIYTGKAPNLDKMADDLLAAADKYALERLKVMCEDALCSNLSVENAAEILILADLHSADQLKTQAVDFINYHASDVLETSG
# T2 sequence (Q13547 whole entry): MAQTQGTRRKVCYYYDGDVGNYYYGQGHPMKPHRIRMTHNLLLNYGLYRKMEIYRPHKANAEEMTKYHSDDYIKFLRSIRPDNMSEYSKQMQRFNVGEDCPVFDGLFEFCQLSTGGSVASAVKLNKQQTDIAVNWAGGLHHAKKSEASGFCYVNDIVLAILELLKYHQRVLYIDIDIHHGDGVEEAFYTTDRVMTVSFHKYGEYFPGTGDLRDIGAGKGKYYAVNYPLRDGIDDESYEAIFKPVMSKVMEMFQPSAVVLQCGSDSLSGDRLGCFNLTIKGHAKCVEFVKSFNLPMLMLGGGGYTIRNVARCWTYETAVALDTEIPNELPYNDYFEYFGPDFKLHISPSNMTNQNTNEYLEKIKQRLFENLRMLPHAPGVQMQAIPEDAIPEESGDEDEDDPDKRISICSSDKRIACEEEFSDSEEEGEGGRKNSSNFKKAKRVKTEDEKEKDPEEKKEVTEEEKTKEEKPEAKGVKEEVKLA
compound,measurement,setting,value
Cc1cccn2c(=O)c3cc(ONCCCCCC(=O)NO)c(=N)n(CCc4cccs4)c3nc12 [HS-1],IC50,SPOP; [3],18.3 ± 2.5 µM
same,IC50,HDAC1; triplicate,0.0137 ± 0.0011 µM
Cc1cccn2c(=O)c3cc(ONCCCCCC(=O)NO)c(=N)n(CCc4ccc(C(F)(F)F)cc4)c3nc12 [HS-2],IC50,SPOP; [3],9.1 ± 0.7 µM
same,SPOP inhibitory effect relative to SPOP-IN-6b (IC50 ratio),SPOP; versus positive control SPOP-IN-6b,~3.8 times
same,HDAC level (western blot),[1],reduced
same,SPOP level (western blot),[1],reduced
same,HDAC level (western blot),[2],reduced
same,SPOP level (western blot),[2],reduced
same,tumor volume versus control group,HCT-116 tumor cells; 5 mg/kg intraperitoneally every 3 days,significantly less tumor volume than the control group
same,tumor volume versus control group,HCT-116 tumor cells; 10 mg/kg intraperitoneally every 3 days,significantly less tumor volume than the control group
same,body weight of mice,HCT-116 tumor cells; [4],no significant differences
same,toxicity in vivo,HCT-116 tumor cells; [4],no significant toxicity
same,IC50,OS-RC-2 cell; 72 h,9.3 ± 1.7 µM
same,IC50,"OS-RC-2 cell; Homo sapiens, OS-RC-2, 72 h",< 10 µM
same,IC50,HDAC1; triplicate,0.0076 ± 0.0004 µM
same,HDAC1 inhibitory effect relative to Vorinostat (IC50 ratio),HDAC1; versus positive control Vorinostat,about 1.1 times
same,IC50,769-P cell,5.2 ± 1.1 µM
same,IC50,"769-P cell; Homo sapiens, 769-P",< 10 µM
Cc1cccn2c(=O)c3cc(ONCCCCCC(=O)NO)c(=N)n(CCc4ccc(Cl)c(F)c4)c3nc12 [HS-3],IC50,SPOP; [3],14.9 ± 1.2 µM
same,IC50,HDAC1; triplicate,0.0115 ± 0.0013 µM
CCN(CC)CCn1c(=N)c(ONCCCCCC(=O)NO)cc2c(=O)n3cccc(C)c3nc21 [HS-4],IC50,SPOP; [3],23.2 ± 2.7 µM
same,IC50,HDAC1; triplicate,0.0184 ± 0.0019 µM
"Cc1cccn2c(=O)c3cc(C(=O)NCCCN4CCOCC4)c(=N)n(CCc4ccccc4)c3nc12 [SPOP-IN-6b, reference compound]",IC50,SPOP; [3],34.6 ± 3.1 µM
same,"HDAC1 (IC50, nM)",HDAC1; triplicate,without an inhibitory effect on HDAC1; also recorded: no binding
"O=C(CCCCCCC(=O)Nc1ccccc1)NO [Vorinostat, reference compound]","SPOP (IC50, μM)",SPOP; [3],without affecting SPOP activity; also recorded: no binding
